These results are taken from patent US7884105B2, “Squaric acid derivatives as inhibitors of histone deacetylase” (Janssen Pharmaceutica, N.V., priority 2005, dated 2011).

Molecules are shown by their SMILES. Bounds are passed on as bounds.

One data set has as its target histone deacetylase (HeLa nuclear extracts). Briefly: In vitro assay for inhibition of histone deacetylase (HDAC Fluorescent Activity Assay, Fluor de Lys). The class given is biochemical. Further details: key: pIC50 = negative log of IC50. Particulars: HeLa nuclear extracts 60 μg/ml, 75 μM Fluor de Lys substrate, pH 7.4, 30 min. From the text: The in vitro assay for inhibition of histone deacetylase (see example C.1) measures the inhibition of HDAC enzymatic activity obtained with the compounds of formula (I).
The HDAC Fluorescent Activity Assay/Drug Discovery Kit of Biomol (cat. No: AK-500-0001) was used. The HDAC Fluorescent Activity Assay is based on the Fluor de Lys (Fluorogenic Histone deAcetylase Lysyl) substrate and developer combination. The Fluor de Lys substrate, comprises an acetylated lysine side chain. Deacetylation of the substrate sensitizes the substrate so that, in the second step, treatment with the Fluor de Lys developer produces a fluorophore.
HeLa nuclear extracts (supplier: Biomol) were incubated at 60 μg/ml with 75 μM of substrate. The Fluor de Lys substrate was added in a buffer containing 25 mM Tris, 137 mM NaCl, 2.7 mM KCl and 1 mM MgCl2.6H2O at pH 7.4. After 30 min, 1 volume of the developer was added. The fluorophore was excited with 355 nm light and the emitted light (450 nm) was be detected on a fluorometric plate reader.
For each experiment, controls (containing HeLa nuclear extract and buffer), a blank incubation (containing buffer but no HeLa nuclear extract) and samples (containing compound dissolved in DMSO and further diluted in buffer and HeLa nuclear extract) were run in parallel. In first instance, compounds were tested at a concentration of 10^−5M. […] All sample were tested 4 times. In each test the blank value was subtracted from both the control and the sample values. The control sample represented 100% of substrate deactylation. For each sample the fluorescence was expressed as a percentage of the mean value of the controls. When appropriate IC50-values (concentration of the drug, needed to reduce the amount of metabolites to 50% of the control) were computed using probit analysis for graded data. Herein the effects of test compounds are expressed as pIC50 (the negative log value of the IC50-value) (see Table F-2).
For the compound `O=C(NO)c1cnc(N2CCN(c3c(Nc4cccc(-c5ccccc5)c4)c(=O)c3=O)CC2)nc1` [Compound 1], the “Enzymatic activity pIC50 C.1.” value was found to be 7.7.

As to `O=C(NO)c1cnc(N2CCN(c3c(NCC4CCN(Cc5ccccc5)C4)c(=O)c3=O)CC2)nc1` (stereo not drawn) [Compound 2], the “Enzymatic activity pIC50 C.1.” value is recorded as 6.9.

For `CCCCCNc1c(N2CCN(c3ncc(C(=O)NO)cn3)CC2)c(=O)c1=O` [Compound 3], the “Enzymatic activity pIC50 C.1.” value was found to be 7.6.

As to `O=C(NO)c1cnc(N2CCN(c3c(NC4CCCc5ccccc54)c(=O)c3=O)CC2)nc1` (stereo not drawn) [Compound 4], the “Enzymatic activity pIC50 C.1.” value is given as 7.2.

Consider `O=C(NO)c1cnc(N2CCN(c3c(NCCOc4cccc(Cl)c4)c(=O)c3=O)CC2)nc1` [Compound 5], for which the “Enzymatic activity pIC50 C.1.” value is listed as 7.4.

As to `CCN(CC)CCCNc1c(N2CCN(c3ncc(C(=O)NO)cn3)CC2)c(=O)c1=O` [Compound 6], the “Enzymatic activity pIC50 C.1.” value is given as 7.2.

Take `O=C(NO)c1cnc(N2CCN(c3c(NCc4ccco4)c(=O)c3=O)CC2)nc1` [Compound 7]: the “Enzymatic activity pIC50 C.1.” value came out at 7.2.

Regarding `O=C(NO)c1cnc(N2CCN(c3c(NCC4(c5ccc(Cl)cc5)CC4)c(=O)c3=O)CC2)nc1` [Compound 8], the “Enzymatic activity pIC50 C.1.” value turned out to be 7.2.

With `O=C(NO)c1cnc(N2CCN(c3c(NCc4cccnc4)c(=O)c3=O)CC2)nc1` [Compound 9], the “Enzymatic activity pIC50 C.1.” value amounted to 7.0.

Turning to `O=C(NO)c1cnc(N2CCN(c3c(NCCc4ccccc4)c(=O)c3=O)CC2)nc1` [Compound 10], the “Enzymatic activity pIC50 C.1.” value is recorded as 7.1.

With `O=C(NO)c1cnc(N2CCN(c3c(NCCc4ccccn4)c(=O)c3=O)CC2)nc1` [Compound 11], the “Enzymatic activity pIC50 C.1.” value is given as 7.0.

Consider `O=C(NO)c1cnc(N2CCN(c3c(NCc4cccc(C(F)(F)F)c4)c(=O)c3=O)CC2)nc1` [Compound 12], for which the “Enzymatic activity pIC50 C.1.” value was found to be 7.2.

Consider `COc1cc(CNc2c(N3CCN(c4ncc(C(=O)NO)cn4)CC3)c(=O)c2=O)cc(OC)c1OC` [Compound 13], for which the “Enzymatic activity pIC50 C.1.” value was found to be 7.4.

For the compound `O=C(NO)c1cnc(N2CCN(c3c(NCCNc4ccccc4)c(=O)c3=O)CC2)nc1` [Compound 14], the “Enzymatic activity pIC50 C.1.” value is 6.9.

Regarding `O=C(NO)c1cnc(N2CCN(c3c(NCCCN4CCCC4=O)c(=O)c3=O)CC2)nc1` [Compound 15], the “Enzymatic activity pIC50 C.1.” value stood at 6.8.

On to `O=C(NO)c1cnc(N2CCN(c3c(NCCOc4ccccc4)c(=O)c3=O)CC2)nc1` [Compound 16], for which the “Enzymatic activity pIC50 C.1.” value is listed as 7.3.

System in another data set: not listed separately
Briefly: Kinetic solubility in aqueous media (nephelometry). To be noted: aqueous buffer, kinetic from dmso stock; phosphate citrate buffer pH 7.4, dilution of 5 mM DMSO stock, turbidity by nephelometer; read-out: Solubility C.2. score. The data set is classed as physicochemical. As to the method:
The solubility of a compound measures the ability of a compound to stay in solution. DMSO-stock solutions are diluted with a single aqueous buffer solvent in 3 consecutive steps. For every dilution turbidity is measured with a nephelometer. (see example C.2).
In the first dilution step, 10 μl of a concentrated stock-solution of the active compound, solubilized in DMSO (5 mM), was added to 100 μl phosphate citrate buffer pH 7.4 and mixed. In the second dilution step, an aliquot (20 μl) of the first dilution step was further dispensed in 100 μl phosphate citrate buffer pH 7.4 and mixed. Finally, in the third dilution step, a sample (20 μl) of the second dilution step was further diluted in 100 μl phosphate citrate buffer pH 7.4 and mixed. All dilutions were performed in 96-well plates. Immediately after the last dilution step the turbidity of the three consecutive dilution steps were measured with a nephelometer. Dilution was done in triplicate for each compound to exclude occasional errors. Based on the turbidity measurements a ranking is performed into 3 classes. Compounds with high solubility obtained a score of 3 and for this compounds the first dilution is clear. Compounds with medium solubility obtained a score of 2. For these compounds the first dilution is unclear and the second dilution is clear. […]
As usually defined, the solubility is the concentration that dissolves in the medium under given conditions. Turning to `O=C(NO)c1cnc(N2CCN(c3c(NCc4ccco4)c(=O)c3=O)CC2)nc1` [Compound 7], the solubility was > 454 µM.

In the case of `O=C(NO)c1cnc(N2CCN(c3c(NCc4cccc(C(F)(F)F)c4)c(=O)c3=O)CC2)nc1` [Compound 12], the solubility is > 454 µM.
